# Source: patent US20230348424A1, “HETEROCYCLIC COMPOUNDS AND METHODS OF USE” (Schrödinger, Inc., priority 2022, published 2023)
# Molecular target: SOS1:KRAS (G12C) interaction (Homo sapiens (Human), UniProt Q07889)
# Experiment: SOS1 KRas(G12C) FRET Assay
# Assay type: binding
# Settings: 0.5 nM His10-SOS1 (res. 564-1049), 2.5 nM GST-KRAS G12C (res. 1-169), 2 hrs at RT
# Experimental: Inhibition of the SOS 1:KRAS interaction was measured using purified GST-tagged KRAS (res. 1-169, G12C, purified based on Hillig, et al., Proc Natl Acad Sci USA (2019); 116(7):2551-2560) and recombinant His10-SOS1 (res. 564-1049; purified based on Hillig, et al.). The final assay was performed at 20 uL with 0.5 nM SOS1 protein and 2.5 nM KRAS protein in a buffer of PBS, 0.1% BSA, 5 mM MgCh, 0.0025% Igepal, 100 mM KF, 5 mM DTT in a white 384 square well OptiPlate (PerkinElmer, Cat. 6007290). A 2x KRAS working solution was prepared in an assay buffer containing 5 nM GST-KRAS G12C and 2 nM anti-GST-Eu(K) (Cisbio, Cat. 61GSTKLA) and pre-incubated for 15 minutes at 25° C. […] The final DMSO concentration is 0.5%. Plates were incubated at RT for 2 hrs before the FRET signal was measured using Envision at emission 665 nm and 615 nm. FRET signal was converted to percentage of protein-protein interaction using the following equation:
# • C: signal with compound treatment • P: signal for positive control (DMSO) • N: signal for negative control (no SOS1 added)
# IC50 and Hill coefficients were obtained using Graph Pad Prism (Graph Pad software, Inc, USA) with non-linear regression analysis.
# SOS1:KRAS (G12C) interaction, sequence (Q07889 564-1049, stated change not applied): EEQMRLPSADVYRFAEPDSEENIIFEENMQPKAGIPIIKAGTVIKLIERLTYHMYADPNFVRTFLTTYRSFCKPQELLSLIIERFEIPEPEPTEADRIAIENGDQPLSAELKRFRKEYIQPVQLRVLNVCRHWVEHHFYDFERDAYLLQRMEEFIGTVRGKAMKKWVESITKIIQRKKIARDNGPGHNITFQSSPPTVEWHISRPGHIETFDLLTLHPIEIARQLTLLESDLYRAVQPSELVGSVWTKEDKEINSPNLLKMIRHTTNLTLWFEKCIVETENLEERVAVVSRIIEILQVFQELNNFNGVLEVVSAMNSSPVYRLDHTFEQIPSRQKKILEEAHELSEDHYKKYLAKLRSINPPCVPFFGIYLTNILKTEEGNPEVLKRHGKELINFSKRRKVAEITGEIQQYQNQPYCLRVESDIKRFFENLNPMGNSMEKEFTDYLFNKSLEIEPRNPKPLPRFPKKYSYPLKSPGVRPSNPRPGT
row,Structure (SMILES),IC50
1,"C[C@@H](NC(=O)c1cn(C2(C(F)F)CC2)c(=O)cc1NC[C@@H]1CCCN1C)c1cccc(C(F)F)c1F [Example 188, N-((R)-1-(3-(difluoromethyl)-2-fluorophenyl)ethyl)-1-(1-(difluoromethyl)cyclopropyl)-4-((((S)-1-methylpyrrolidin-2-yl)methyl)amino)-6-oxo-1,6-dihydropyridine-3-carboxamide]",0.0413 µM
2,"C[C@@H](NC(=O)c1cn(C2CCC2)c(=O)cc1NC1CCN(C)CC1)c1cccc(S(F)(F)(F)(F)F)c1 [Example 164, (R)-1-cyclobutyl-4-((1-methylpiperidin-4-yl)amino)-6-oxo-N-(1-(3-(pentafluoro-16-sulfaneyl)phenyl)ethyl)-1,6-dihydropyridine-3-carboxamide]",0.0135 µM
3,"C[C@@H](NC(=O)c1cn(C23CC(C2)C3)c(=O)cc1N[C@H]1[C@@H]2C[C@H]1CN(C)C2)c1cccc(C(F)F)c1F [Example 209, 1-(bicyclo[1.1.1]pentan-1-yl)-N-((R)-1-(3-(difluoromethyl)-2-fluorophenyl)ethyl)-4-(((1R,5S,6r)-3-methyl-3-azabicyclo[3.1.1]heptan-6-yl)amino)-6-oxo-1,6-dihydropyridine-3-carboxamide]",0.0634 µM
4,"C[C@@H](NC(=O)c1cn(C2(C)CN(C(=O)C3CC3)C2)c(=O)cc1NC1CCN(C)CC1)c1cccc(C(F)F)c1F [Example 78, (R)-1-(1-(cyclopropanecarbonyl)-3-methylazetidin-3-yl)-N-(1-(3-(difluoromethyl)-2-fluorophenyl)ethyl)-4-((1-methylpiperidin-4-yl)amino)-6-oxo-1,6-dihydropyridine-3-carboxamide]",0.0009 µM
5,"Cc1c([C@@H](C)NC(=O)c2cn(C3CCOCC3)c(=O)cc2N[C@@H]2CCN(C)C3(CC3)C2)cccc1C(F)(F)F (single isomer, unassigned) [Example 40]",0.0118 µM
6,"CC(NC(=O)c1cn(C2(C(F)F)CC2)c(=O)cc1N[C@H]1[C@@H]2CN(C)C[C@@H]21)c1cccc(C(F)(F)c2cocn2)c1F (stereo partly drawn) [Example 176, N-(1-(3-(difluoro(oxazol-4-yl)methyl)-2-fluorophenyl)ethyl)-1-(1-(difluoromethyl)cyclopropyl)-4-(((1R,5S,6s)-3-methyl-3-azabicyclo[3.1.0]hexan-6-yl)amino)-6-oxo-1,6-dihydropyridine-3-carboxamide]",0.109 µM
7,"C[C@@H]1[C@@H](n2cc(C(=O)N[C@H](C)c3cccc(C(F)(F)F)c3F)c(N[C@H]3[C@@H]4CN(C)C[C@@H]43)cc2=O)C1(F)F (single isomer, unassigned) [Example 197]",0.0317 µM
8,"C[C@@H](NC(=O)c1cn([C@@H]2CC2(F)F)c(=O)cc1N[C@H]1[C@@H]2CN(C)C[C@@H]21)c1cccc(C(F)(F)F)c1F (single isomer, unassigned) [Example 199]",0.0101 µM
9,"C[C@@H](NC(=O)c1cn(C23CC(C2)C3)c(=O)cc1NC12CC(N)(C1)C2)c1cccc(C(F)F)c1F [Example 189, (R)-4-((3-aminobicyclo[1.1.1]pentan-1-yl)amino)-1-(bicyclo[1.1.1]pentan-1-yl)-N-(1-(3-(difluoromethyl)-2-fluorophenyl)ethyl)-6-oxo-1,6-dihydropyridine-3-carboxamide]",0.0163 µM
10,"Cc1c([C@@H](C)NC(=O)c2cn(C3CCOCC3)c(=O)cc2NCCONC(=N)N)cccc1C(F)(F)F [Example 46, (R)-4-((2-(guanidinooxy)ethyl)amino)-N-(1-(2-methyl-3-(trifluoromethyl)phenyl)ethyl)-6-oxo-1-(tetrahydro-2H-pyran-4-yl)-1,6-dihydropyridine-3-carboxamide]",0.0182 µM
11,"C[C@@H](NC(=O)c1cn(C23CC(C2)C3)c(=O)cc1N[C@H]1[C@@H]2CN(C)C[C@@H]21)c1cccc(C#N)c1F [Example 179, 1-(bicyclo[1.1.1]pentan-1-yl)-N-((R)-1-(3-cyano-2-fluorophenyl)ethyl)-4-(((1R,5S,6s)-3-methyl-3-azabicyclo[3.1.0]hexan-6-yl)amino)-6-oxo-1,6-dihydropyridine-3-carboxamide]",0.0707 µM
12,"C[C@@H](NC(=O)c1cn([C@H]2CCC2(F)F)c(=O)cc1N[C@H]1[C@@H]2CC[C@H]1CN(C)C2)c1cccc(C(F)F)c1F [Example 210, 1-((S)-2,2-difluorocyclobutyl)-N-((R)-1-(3-(difluoromethyl)-2-fluorophenyl)ethyl)-4-(((1R,5S,8r)-3-methyl-3-azabicyclo[3.2.1]octan-8-yl)amino)-6-oxo-1,6-dihydropyridine-3-carboxamide]",0.0043 µM

# Continued, values first:
row,IC50,Structure (SMILES)
1,0.0139 µM,"C[C@@H](NC(=O)c1cn(C2(C(F)(F)F)CCC2)c(=O)cc1NC1CCN(C)CC1)c1cccc(C(F)F)c1F [Example 225, (R)-N-(1-(3-(difluoromethyl)-2-fluorophenyl)ethyl)-4-((1-methylpiperidin-4-yl)amino)-6-oxo-1-(1-(trifluoromethyl)cyclobutyl)-1,6-dihydropyridine-3-carboxamide]"
2,0.0382 µM,"C[C@@H](NC(=O)c1cn([C@@H]2CCC2(F)F)c(=O)cc1N[C@@H]1[C@@H]2CC[C@H]1CN(C)C2)c1cccc(C(F)F)c1F [Example 212, 1-((R)-2,2-difluorocyclobutyl)-N-((R)-1-(3-(difluoromethyl)-2-fluorophenyl)ethyl)-4-(((1R,5S,8s)-3-methyl-3-azabicyclo[3.2.1]octan-8-yl)amino)-6-oxo-1,6-dihydropyridine-3-carboxamide]"
3,0.0643 µM,"C[C@@H](NC(=O)c1cn(C2(C(F)F)CC2)c(=O)cc1N[C@@]12C[C@@H]1CN(C)C2)c1cccc(C(F)F)c1F [Example 228, N-((R)-1-(3-(difluoromethyl)-2-fluorophenyl)ethyl)-1-(1-(difluoromethyl)cyclopropyl)-4-(((1S,5R)-3-methyl-3-azabicyclo[3.1.0]hexan-1-yl)amino)-6-oxo-1,6-dihydropyridine-3-carboxamide]"
4,0.0291 µM,"C[C@@H]1C[C@H]1n1cc(C(=O)N[C@H](C)c2cccc(C(F)F)c2F)c(N[C@H]2[C@@H]3CN(C)C[C@@H]32)cc1=O (single isomer, unassigned) [Example 272]"
5,0.0116 µM,"C[C@@H](NC(=O)c1cn(C2CC23CCC(F)(F)CC3)c(=O)cc1N[C@H]1[C@@H]2CN(C)C[C@@H]21)c1cccc(C(F)F)c1F (stereo partly drawn) [Example 242, N-((R)-1-(3-(difluoromethyl)-2-fluorophenyl)ethyl)-1-(6,6-difluorospiro[2.5]octan-1-yl)-4-(((1R,5S,6s)-3-methyl-3-azabicyclo[3.1.0]hexan-6-yl)amino)-6-oxo-1,6-dihydropyridine-3-carboxamide]"
6,0.0315 µM,"Cc1c([C@@H](C)NC(=O)c2cn(C3CCOCC3)c(=O)cc2NC[C@H]2CC[C@@H](N(C)C)CC2)cccc1C(F)(F)F [Example 302, 4-((((1s,4S)-4-(dimethylamino)cyclohexyl)methyl)amino)-N-((R)-1-(2-methyl-3-(trifluoromethyl)phenyl)ethyl)-6-oxo-1-(tetrahydro-2H-pyran-4-yl)-1,6-dihydropyridine-3-carboxamide]"
7,0.013 µM,"C[C@@H](NC(=O)c1cn([C@@H]2CC23CC3)c(=O)cc1N[C@H]1[C@@H]2CN(C)C[C@@H]21)c1cccc(C(C)(F)F)c1F (single isomer, unassigned) [Example 254]"
8,0.361 µM,"CN1C[C@@H]2[C@H](C1)[C@H]2Nc1cc(=O)n(C2(C(F)F)CC2)cc1C(=O)N[C@@H](c1cccc(C(F)F)c1F)C(F)(F)F (single isomer, unassigned) [Example 275]"
9,0.0353 µM,"C[C@@H](NC(=O)c1cn(C2(C(F)F)CC2)c(=O)cc1NC[C@@H]1[C@H]2CN(C)C[C@@H]12)c1cccc(C(F)F)c1F [Example 226, N-((R)-1-(3-(difluoromethyl)-2-fluorophenyl)ethyl)-1-(1-(difluoromethyl)cyclopropyl)-4-((((1R,5S,6s)-3-methyl-3-azabicyclo[3.1.0]hexan-6-yl)methyl)amino)-6-oxo-1,6-dihydropyridine-3-carboxamide]"
10,0.0453 µM,"C[C@@H](NC(=O)c1cn(C2(C(F)F)CC2)c(=O)cc1N[C@H]1C[C@H]2C[C@@H]1CN2C)c1cccc(C(F)F)c1F (single isomer, unassigned) [Example 236]"
11,0.0619 µM,"C[C@@H](NC(=O)c1cn(C2(C(F)F)CC2)c(=O)cc1N[C@]12C[C@H]1CN(C)C2)c1cccc(C(F)F)c1F [Example 227, N-((R)-1-(3-(difluoromethyl)-2-fluorophenyl)ethyl)-1-(1-(difluoromethyl)cyclopropyl)-4-(((1R,5S)-3-methyl-3-azabicyclo[3.1.0]hexan-1-yl)amino)-6-oxo-1,6-dihydropyridine-3-carboxamide]"
12,0.0097 µM,"C[C@@H](NC(=O)c1cn(C2(C(F)F)CC2)c(=O)cc1N[C@H]1CCN(C)C2(CC2)C1)c1cccc(C(F)F)c1F (single isomer, unassigned) [Example 311]"
13,0.0534 µM,"C[C@@H](NC(=O)c1cn(C2(C(F)F)CC2)c(=O)cc1N[C@@H]1[C@@H]2CC[C@H]1CN(C)C2)c1cccc(C(F)F)c1F [Example 294, N-((R)-1-(3-(difluoromethyl)-2-fluorophenyl)ethyl)-1-(1-(difluoromethyl)cyclopropyl)-4-(((1R,5S,8s)-3-(methyl-d3)-3-azabicyclo[3.2.1]octan-8-yl)amino)-6-oxo-1,6-dihydropyridine-3-carboxamide]"
